According to publication PMC11435058, “Synthesis of New Thiazole-Privileged Chalcones as Tubulin Polymerization Inhibitors with Potential Anticancer Activities” (Pharmaceuticals, 2024):

Key:
DU-145 = experiment: NCI-60 anticancer screen (SRB; single dose and five doses); conditions: Homo sapiens, DU-145, 48 h, read-out: Growth Percentage
KM12 = experiment: as above; conditions: Homo sapiens, KM12, 48 h, read-out: Growth Percentage
ACHN = experiment: as above; conditions: Homo sapiens, 48 h, read-out: Growth Percentage
OVCAR-4 = experiment: as above; conditions: Homo sapiens, OVCAR-4, 48 h, read-out: Growth Percentage
EKVX = experiment: as above; conditions: Homo sapiens, 48 h, read-out: Growth Percentage
A498 = experiment: as above; conditions: Homo sapiens, A498, 48 h, read-out: Growth Percentage, A498; dose of 10 μM
NCI-H23 = experiment: as above; conditions: Homo sapiens, NCI-H23, 48 h, read-out: Growth Percentage
SN12C = experiment: as above; conditions: Homo sapiens, 48 h, read-out: Growth Percentage
RPMI-8226 = experiment: as above; conditions: Homo sapiens, RPMI-8226, 48 h, read-out: Growth Percentage
HCC-2998 = experiment: as above; conditions: Homo sapiens, HCC 2998, 48 h, read-out: Growth Percentage
NCI/ADR-RES = experiment: as above; conditions: Homo sapiens, 48 h, read-out: Growth Percentage
COLO 205 = experiment: as above; conditions: Homo sapiens, COLO 205, 48 h, read-out: Growth Percentage
T-47D = experiment: as above; conditions: Homo sapiens, T47D, 48 h, read-out: Growth Percentage
BT-549 = experiment: as above; conditions: Homo sapiens, BT-549, 48 h, read-out: Growth Percentage
NCI-H460 = experiment: as above; conditions: Homo sapiens, NCI-H460, 48 h, read-out: Growth Percentage
CCRF-CEM = experiment: NCI-60 anticancer screen (SRB; single dose 10 μM and five doses); conditions: Homo sapiens, 48 h, read-out: Growth Percentage
HCT-15 = experiment: NCI-60 anticancer screen (SRB; single dose and five doses); conditions: Homo sapiens, HCT-15, 48 h, read-out: Growth Percentage
786-0 = experiment: as above; conditions: Homo sapiens, 786-0, 48 h, read-out: Growth Percentage
SR = experiment: as above; conditions: Homo sapiens, 48 h, read-out: Growth Percentage
TK-10 = experiment: as above; conditions: Homo sapiens, TK-10, 48 h, read-out: Growth Percentage
HOP-92 = experiment: as above; conditions: Homo sapiens, HOP-92, 48 h, read-out: Growth Percentage
K-562 = experiment: as above; conditions: Homo sapiens, K562, 48 h, read-out: Growth Percentage
HOP-62 = experiment: as above; conditions: Homo sapiens, HOP-62, 48 h, read-out: Growth Percentage
PC-3 = experiment: as above; conditions: Homo sapiens, PC-3, 48 h, read-out: Growth Percentage
A549/ATCC = experiment: as above; conditions: Homo sapiens, A549, 48 h, read-out: Growth Percentage
SK-MEL-28 = experiment: as above; conditions: Homo sapiens, SK-MEL-28, 48 h, read-out: Growth Percentage
HT29 = experiment: as above; conditions: Homo sapiens, HT-29, 48 h, read-out: Growth Percentage
SNB-75 = experiment: as above; conditions: Homo sapiens, SNB-75, 48 h, read-out: Growth Percentage
LOX IMVI = experiment: as above; conditions: Homo sapiens, 48 h, read-out: Growth Percentage

SMILES	activity at 10 µM (DU-145) [%]	activity at 10 µM (KM12) [%]	activity at 10 µM (ACHN) [%]	activity at 10 µM (OVCAR-4) [%]	activity at 10 µM (EKVX) [%]	activity at 10 µM (A498) [%]	activity at 10 µM (NCI-H23) [%]	activity at 10 µM (SN12C) [%]	activity at 10 µM (RPMI-8226) [%]	activity at 10 µM (HCC-2998) [%]	activity at 10 µM (NCI/ADR-RES) [%]	activity at 10 µM (COLO 205) [%]	activity at 10 µM (T-47D) [%]	activity at 10 µM (BT-549) [%]	activity at 10 µM (NCI-H460) [%]	activity at 10 µM (CCRF-CEM) [%]	activity at 10 µM (HCT-15) [%]	activity at 10 µM (786-0) [%]	activity at 10 µM (SR) [%]	activity at 10 µM (TK-10) [%]	further results
COc1ccc(/C=C/C(=O)c2sc(=S)[nH]c2C)cc1OC [2o, (E)-3-(3,4-Dimethoxyphenyl)-1-(4-Methyl-2-Thioxo-2,3-Dihydrothiazol-5-yl)Prop-2-En-1-One]	48.1	42.2	64.9	47.6	54.2	126	65.1	45.4	18.6	41.7	26.9	116	44.1	18.9	40	15.5	31.3	60	32.5	75.4	activity at 10 µM (HOP-92): 83.7%; activity at 10 µM (K-562): 32.4%; activity at 10 µM (HOP-62): 34.1%; activity at 10 µM (PC-3): 68.9%; activity at 10 µM (A549/ATCC): 64.6%; activity at 10 µM (SK-MEL-28): 83.2%; activity at 10 µM (HT29): 97.7%; activity at 10 µM (SNB-75): 58.1%; activity at 10 µM (LOX IMVI): 26.9%
Cc1ccc(/C=C/C(=O)c2sc(=S)[nH]c2C)cc1 [2j, (E)-1-(4-Methyl-2-Thioxo-2,3-Dihydrothiazol-5-yl)-3-(p-Tolyl)Prop-2-En-1-One]	54.6	29.8	71.2	59.2	55.5	131	68.5	62.3	18.9	77.2	31	122	38.3	56.1	53.1	24.6	38.6	70.7	45.5	79.8	activity at 10 µM (HOP-92): 98%; activity at 10 µM (K-562): 34.2%; activity at 10 µM (HOP-62): 54.1%; activity at 10 µM (PC-3): 74.8%; activity at 10 µM (A549/ATCC): 74.3%; activity at 10 µM (SK-MEL-28): 92.8%; activity at 10 µM (HT29): 98.7%; activity at 10 µM (SNB-75): 78.1%; activity at 10 µM (LOX IMVI): 31.2%
